Values of other authors as cited in patent US20090078254A1, “Anesthetic Agent Recovery” (priority 2004, published 2009).
Where two headings read alike, the source gives them in different places.

Key:
[1] = in vitro and in vivo studies
[2] = not given; remark: listed apart in the source
[3] = system: population moving in response to pain; settings: for MAC (Minimum Alveolar Concentration of gas that prevents 50% of population from moving in response to pain): adding 50% MAC N2O drops MAC value of agent by 50%
[4] = not given; remark: listed apart in the source
[5] = produces inorganic fluoride

Row | Stability In Moist Soda Lime (40° C.) | Stability In Moist Soda Lime (60° C.) | Stability In Moist Soda Lime (80° C.) | SVP@20° C. [2] [mm Hg] | Stability in the presence of standard CO2 absorbents (soda lime, baralime) | metabolism [5] [%] | SMILES | Compound stability [1] | SVP@18° C. [2] [mm Hg] | SVP@22° C. [2] [mm Hg] | SVP@24° C. [2] [mm Hg] | SVP@26° C. [2] [mm Hg] | saturated vapor pressure ([2]; room temperature) [atm.] | MAC (Minimum Alveolar Concentration of gas that prevents 50% of population from moving in response to pain) [3] | Potency relative to ISOFLURANE ([3]; fraction of isoflurane potency) | Liver damage ([4]; byproducts of reductive metabolism) | Malignant hyperthermia ([4]; in vivo)
1 | Stable | Stable | Stable | 240 |  |  | FC(F)OC(Cl)C(F)(F)F (stereo not drawn) [ISOFLURANE] |  | 219 | 262 | 286 | 312 |  | 1-1.6% |  |  | 
2 |  |  |  |  |  |  | FC(F)(F)C(Cl)Br (stereo not drawn) [HALOTHANE] |  |  |  |  |  |  |  |  | can cause liver damage | potential to cause malignant hyperthermia
3 | Unstable | Unstable | Unstable | 157 | unstable | 5 | FCOC(C(F)(F)F)C(F)(F)F [SEVOFLURANE] |  |  |  |  |  |  | 1.5-2.5% |  |  | 

Row | SMILES | Stability In Moist Soda Lime (40° C.) | Stability In Moist Soda Lime (60° C.) | Stability In Moist Soda Lime (80° C.) | SVP@20° C. [2] [mm Hg] | Stability in the presence of standard CO2 absorbents (soda lime, baralime) | metabolism [5] [%] | Compound stability [1] | SVP@18° C. [2] [mm Hg] | SVP@22° C. [2] [mm Hg] | SVP@24° C. [2] [mm Hg] | SVP@26° C. [2] [mm Hg] | saturated vapor pressure ([2]; room temperature) [atm.] | MAC (Minimum Alveolar Concentration of gas that prevents 50% of population from moving in response to pain) [3] | Potency relative to ISOFLURANE ([3]; fraction of isoflurane potency) | Liver damage ([4]; byproducts of reductive metabolism) | Malignant hyperthermia ([4]; in vivo)
4 | FC(F)OC(F)C(F)(F)F (stereo not drawn) [DESFLURANE] | Stable | Stable | Sl. Unstable | 700 |  |  | extremely stable | 653 | 750 | 804 | 860 | ~1.0 | 5-8% | about ⅕ |  | 
